In US12016858B2, “Methods for the treatment of abnormal involuntary movement disorders” (AUSPEX PHARMACEUTICALS, INC., priority 2015, dated 2024):

System: cardiac repolarization (QTcF interval)
Test: TQT study, six-period crossover, placebo- and positive-controlled
Assay type: in vivo, healthy volunteers
Details: for Maximum Placebo-Adjusted Change from Baseline in QTcF: fed
Protocol: Study Design. Given the known risk for tetrabenazine to increase the QT interval, a TQT study of deutetrabenazine, which included tetrabenazine as a treatment arm, was conducted in 48 healthy volunteers. This was a single-center, randomized, double-blind, placebo- and positive-controlled six-period crossover study to evaluate the effects of low-dose (12 mg) and high-dose (24 mg) deutetrabenazine on cardiac repolarization, based on placebo-corrected, time-matched changes from baseline in the QTcF interval. Assay sensitivity was established by using moxifloxacin 400 mg as the positive control.
The key outcome measure was to determine the effect of single doses of deutetrabenazine on the QTc interval.
In the table above, ΔΔQTcF is defined as the difference between the least squares mean change from baseline for the active drug and placebo. deutetrabenazine was compared with deutetrabenazine placebo (administered under fed conditions) and tetrabenazine was compared with tetrabenazine placebo (administered under fasted conditions). […] The upper limit of the 95% one-sided confidence interval is the upper limit of the 90% 2-sided confidence interval.

[2H]C([2H])([2H])Oc1cc2c(cc1OC([2H])([2H])[2H])C1CC(=O)C(CC(C)C)CN1CC2 (stereo not drawn) [deutetrabenazine, (RR, SS)-1,3,4,6,7,11b-hexahydro-9,10-di(methoxy-d3)-3-(2-methylpropyl)-2H-benzo[a]quinolizin-2-one]
Maximum Placebo-Adjusted Change from Baseline in QTcF (12 mg single dose): 2.8 ms | Maximum Placebo-Adjusted Change from Baseline in QTcF (24 mg single dose): 4.5 ms | time point at which the maximal ΔΔQTcF was observed (in vivo): 8 h
